The record followed here is US20040110247A1, “New molecular tools for the rapid assessment of the presence and viability of microorganisms and methods of use” (priority 2002, published 2004).

Common to all, as to format: cell-based
In test [1] the test system is Wild-type (wt) Streptococcus gordonii. Nature of the test: Quantitative culture (colony counts) of drug-exposed S. gordonii cultures. Here is the method:
(§1) 1) Strains and growth conditions: Wild-type (wt) and penicillin tolerant (Tol) Streptococcus gordonii (I. Caldelari et al., Antimicrobial Agents and Chemotherapy, 2000, 44(10):2802-2810) were grown at 37 degrees Celsius, either in brain heart infusion broth (BHI) without aeration, or on Columbia agar supplemented with 3% blood. Quantitative culture was performed by plating serial dilutions of bacterial cultures taken at various time points on penicillinase-containing blood-agar plates. Colonies counts were determined after incubation for […] at 37° C.

Test [2] shares this test system. The experiment in a line: RT-qPCR of 16S rRNA after drug exposure. The following applies: reverse transcription of 16S rRNA from total RNA, then qPCR. How it is done:
as §1
(§2) 3) Extraction and purification of bacterial DNA and RNA: (i) Total DNA from 3 ml of culture samples was extracted and purified using the DNeasy Tissue Kit according to the instructions of the manufacturer (Qiagen). […] Total RNA concentrations were determined by spectrophotometry and quality checked on 1% MOPS-agarose gels. […]
(§3) 4) Quantitative Real-Time PCR was performed using the following probe FAM-5′-TTGCACCACTACCAGATGGAC CTGC-3′-TAMRA (SEQ ID NO:3) according to the instruction of the manufacturer (Perkin-Elmer) on Sequence Detection System 5700 (Perkin-Elmer) in a total volume of 50 μl 1×PCR buffer (Gibco) containing 25 pmoles of each primer, […] of fluorescent probe, […] each dNTP and 1.5 UI of Taq DNA polymerase (Gibco). […]

For test [3], the system named is penicillin tolerant (Tol) Streptococcus gordonii. Nature of the test: RT-qPCR of 16S rRNA after drug exposure, tolerant mutant control. The conditions noted are these: same system, Tol as control. Here is the method: as §1, §2, §3

Regarding penicillin, the loss of viability in test [1] (after addition of penicillin, up to 50 hours) was 5 log CFU/ml; in test [1] (cultures dramatically killed with penicillin (qualitative PCR experiment)), > 3 log CFU/ml. For the same substance, the “16S rRNA amplicons (viability marker) during drug-induced killing” value in test [2] is reported as “decreased proportionally to cell death”. Also, in test [3], the “ribosomal RNA amplicons in penicillin-tolerant mutant Tol” value was “remained stable and proportional to viable bacteria”.
